Earlier results in US20140018386A1, “LAQUINIMOD FORMULATIONS WITHOUT ALKALIZING AGENT” (Teva Pharmaceutical Industries, Ltd., priority 2012, published 2014).

What was measured:
[1] = in vivo
[2] = test system: acute experimental autoimmune encephalomyelitis (aEAE) model; details: in vivo
[3] = test system: various experimental inflammatory/autoimmune animal models; details: EAE, DSS colitis, NOD mice, EAN, SLE, lupus nephritis, lupus arthritis, Crohn's Disease, Rheumatoid arthritis

Row | Structure (SMILES) | Oral bioavailability [1] | Effect in the aEAE model [2] | Development of active MRI lesions (relapsing MS) | Therapeutic effect [3]
1 | CCN(C(=O)c1c(O)c2c(Cl)cccc2n(C)c1=O)c1ccccc1 [Laquinimod sodium] | high oral bioavailability |  |  | 
2 | CCN(C(=O)c1c(O)c2c(Cl)cccc2n(C)c1=O)c1ccccc1 [Laquinimod, N-ethyl-N-phenyl-1,2-dihydro-4-hydroxy-5-chloro-1-methyl-2-oxoquinoline-3-carboxamide] |  | effective | can reduce development of active MRI lesions | demonstrated therapeutic effect
